Test results from US8653087B2, “Pyrido [5, 4-D] pyrimidines as cell proliferation inhibitors” (Boehringer Ingelheim International GmbH, priority 2008, dated 2014).

The compounds below were run against B-Raf (V600E)-kinase (Homo sapiens (Human), UniProt P15056, V600E) (assay: Kinase test B-RAF (V600E)). Details: B-RAF (V600E) kinase test, 250 μM ATP.
Type: biochemical
Procedure: Kinase Test B-RAF (V600E)
In a dilution series 10 μL of test substance solution are placed in a multiwell plate. The dilution series is selected so that generally a range of concentrations of 2 μM to 0.119 nM or 0.017 nM is covered. If necessary the initial concentration of 2 μM is changed to 50 μM, 10 μM or 0.4 μM or 0.2857 μM and further dilution is carried out accordingly. The final concentration of DMSO is 5%. 10 μL of the B-Raf (V600E)-kinase solution are pipetted in (containing 0.5 ng B-Raf (V600E)-kinase in 20 mM Tris-HCl pH 7.5, 0.1 mM EDTA, 0.1 mM EGTA, 0.286 mM sodium orthovanadate, 10% glycerol, 1 mg/mL bovine serum albumin, 1 mM dithiothreitol) and the mixture is incubated for 24 h at RT under with shaking. The kinase reaction is started by the addition of 20 μL ATP solution [final concentration: 250 μM ATP, 30 mM Tris-HCl pH 7.5, 0.02% Brij, 0.2 mM sodium orthovanadate, 10 mM magnesium acetate, 0.1 mM EGTA, phosphatase cocktail (Sigma, # P2850, dilution recommended by the manufacturer), 0.1 mM EGTA] and 10 μL MEK1 solution [containing 50 ng biotinylated MEK1 (prepared from purified MEK1 according to standard procedure, e.g. with EZ-Link Sulpho-NHS-LC-Biotin reagent, Pierce, #21335) and carried out for 60 min at RT with constant shaking. The reaction is stopped by the addition of 12 μL of a 100 mM EDTA solution and incubation is continued for a further 5 min. 55 μL of the reaction solution are transferred into a streptavidin-coated plate (e.g. Streptawell HighBond, Roche, #11989685001) and shaken gently for 1 h at RT, in order to bind biotinylated MEK1 to the plate. After elimination of the liquid the plate is washed five times with 200 μL of 1×PBS and 100 μL solution of primary antibody plus europium-labelled secondary antibody [Anti Phospho-MEK (Ser217/221), Cell Signaling, #9121 and Eu-N1 labeled goat-anti-rabbit antibody, Perkin Elmer, # AD0105], the primary antibody is diluted 1:2000 and the secondary antibody is diluted to 0.4-0.5 μg/mL in Delfia Assay Buffer (Perkin Elmer, #1244-111). After 1 h shaking at RT the solution is poured away and washed five times with 200 μL Delfia Wash Buffer (Perkin Elmer, #4010-0010/#1244-114). After the addition of 200 μL Enhancement Solution (Perkin Elmer, #4001-0010/#1244-105) the mixture is shaken for 10 min at RT and then measured in a Wallac Victor using the program “Delfia Time Resolved Fluorescence (Europium)”. IC50 values are obtained from these dosage-activity curves using a software program (GraphPadPrizm).

Chain of B-Raf (V600E)-kinase (P15056 whole entry V600E): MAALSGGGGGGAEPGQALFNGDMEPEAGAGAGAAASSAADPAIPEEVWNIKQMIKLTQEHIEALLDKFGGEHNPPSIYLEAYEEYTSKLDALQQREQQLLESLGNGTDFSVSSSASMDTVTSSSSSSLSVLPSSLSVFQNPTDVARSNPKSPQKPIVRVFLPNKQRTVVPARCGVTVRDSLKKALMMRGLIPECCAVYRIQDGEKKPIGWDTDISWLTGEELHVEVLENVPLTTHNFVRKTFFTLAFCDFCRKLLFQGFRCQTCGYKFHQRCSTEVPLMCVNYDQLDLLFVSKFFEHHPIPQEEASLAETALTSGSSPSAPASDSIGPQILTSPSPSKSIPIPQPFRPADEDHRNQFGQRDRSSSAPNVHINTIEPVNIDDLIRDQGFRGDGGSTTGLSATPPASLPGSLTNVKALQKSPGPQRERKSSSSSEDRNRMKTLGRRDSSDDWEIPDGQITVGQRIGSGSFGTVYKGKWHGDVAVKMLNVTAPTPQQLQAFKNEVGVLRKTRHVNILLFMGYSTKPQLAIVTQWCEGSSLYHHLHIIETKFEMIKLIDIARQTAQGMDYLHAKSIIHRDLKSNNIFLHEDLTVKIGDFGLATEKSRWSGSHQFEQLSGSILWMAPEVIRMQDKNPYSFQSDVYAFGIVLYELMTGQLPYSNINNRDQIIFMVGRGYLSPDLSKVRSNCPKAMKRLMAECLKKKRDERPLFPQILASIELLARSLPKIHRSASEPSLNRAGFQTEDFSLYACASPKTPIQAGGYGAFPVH

First: COc1ccc(NC(=O)c2ccc(Cl)c(Nc3ncnc4cnc(N5CCOCC5)nc34)c2)cc1C(F)(F)F [III-12]
Second: COc1ccc(NC(=O)c2ccc(F)c(Nc3ncnc4cnc(N5CCOCC5)nc34)c2)cc1C(F)(F)F [III-37]
The IC50 of the first is 2-fold lower: 2 nM for the first, 4 nM for the second.

Compared with `COc1ccc(NC(=O)c2ccc(Cl)c(Nc3ncnc4cnc(N5CCCC5)nc34)c2)cc1C(F)(F)F` [III-13], `COc1ccc(NC(=O)c2ccc(F)c(Nc3ncnc4cnc(N5CCCC5)nc34)c2)cc1C(F)(F)F` [III-38] is 1.8-fold lower in IC50: 9 nM for the first, 5 nM for the second.

Going from `COc1ccc(NC(=O)c2ccc(Cl)c(Nc3ncnc4cnc(NCCN(C)C)nc34)c2)cc1C(F)(F)F` [III-14] to `COc1ccc(NC(=O)c2ccc(F)c(Nc3ncnc4cnc(NCCN(C)C)nc34)c2)cc1C(F)(F)F` [III-39], the IC50 falls from 3 nM to 2 nM (1.5-fold).

Going from `COc1ccc(NC(=O)c2ccc(Cl)c(Nc3ncnc4cnc(NCCN5CCOCC5)nc34)c2)cc1C(F)(F)F` [III-15] to `COc1ccc(NC(=O)c2ccc(F)c(Nc3ncnc4cnc(NCCN5CCOCC5)nc34)c2)cc1C(F)(F)F` [III-40], the IC50 falls from 5 nM to 2 nM (2.5-fold). The second is the more potent here.

Compared with `COc1ccc(NC(=O)c2ccc(Cl)c(Nc3ncnc4cnc(N(C)C)nc34)c2)cc1C(F)(F)F` [III-16], `COc1ccc(NC(=O)c2ccc(F)c(Nc3ncnc4cnc(N(C)C)nc34)c2)cc1C(F)(F)F` [III-41] is 2-fold lower in IC50: 2 nM for the first, 1 nM for the second.

Compared with `COCCN(C)c1ncc2ncnc(Nc3cc(C(=O)Nc4ccc(OC)c(C(F)(F)F)c4)ccc3OC)c2n1` [III-17], `COCCN(C)c1ncc2ncnc(Nc3cc(C(=O)Nc4ccc(OC)c(C(F)(F)F)c4)ccc3F)c2n1` [III-30] is 1.5-fold lower in IC50: 3 nM for the first, 2 nM for the second.

Compared with `COc1ccc(C(=O)Nc2ccc(OC)c(C(F)(F)F)c2)cc1Nc1ncnc2cnc(N(C)CCN(C)C)nc12` [III-18], `COc1ccc(NC(=O)c2ccc(F)c(Nc3ncnc4cnc(N(C)CCN(C)C)nc34)c2)cc1C(F)(F)F` [III-31] is lower in IC50: 4 nM for the first, < 1 nM for the second.

Going from `COc1ccc(C(=O)Nc2ccc(OC)c(C(F)(F)F)c2)cc1Nc1ncnc2cnc(N3CCCCCC3)nc12` [III-19] to `COc1ccc(C(=O)Nc2ccc(OC)c(C(F)(F)F)c2)cc1Nc1ncnc2cnc(N3CCCCC3)nc12` [III-23], the IC50 rises from 1 nM to 7 nM (7-fold).

First: COc1ccc(C(=O)Nc2ccc(OC)c(C(F)(F)F)c2)cc1Nc1ncnc2cnc(N3CCCN(C)CC3)nc12 [III-20]
Second: COc1ccc(C(=O)Nc2ccc(OC)c(C(F)(F)F)c2)cc1Nc1ncnc2cnc(N3CCN(C)CC3)nc12 [III-22]
The IC50 of the first is 2-fold lower: 3 nM for the first, 6 nM for the second. The first is the more potent here.

First: COc1ccc(C(=O)Nc2ccc(OC)c(C(F)(F)F)c2)cc1Nc1ncnc2cnc(N(C)CCN3CCCC3)nc12 [III-21]
Second: COc1ccc(NC(=O)c2ccc(F)c(Nc3ncnc4cnc(N(C)CCN5CCCC5)nc34)c2)cc1C(F)(F)F [III-33]
The IC50 of the first is 3-fold higher: 3 nM for the first, 1 nM for the second.

Going from `COc1ccc(C(=O)Nc2ccc(OC)c(C(F)(F)F)c2)cc1Nc1ncnc2cnc(NCCCN3CCOCC3)nc12` [III-24] to `COc1ccc(C(=O)Nc2ccc(OC)c(C(F)(F)F)c2)cc1Nc1ncnc2cnc(NCCN3CCOCC3)nc12` [III-28], the IC50 falls from 5 nM to 3 nM (1.7-fold).

Compared with `COc1ccc(C(=O)Nc2ccc(OC)c(C(F)(F)F)c2)cc1Nc1ncnc2cnc(N3CCOCC3)nc12` [III-25], `COc1ccc(C(=O)Nc2ccc(OC)c(C(F)(F)F)c2)cc1Nc1ncnc2cnc(N3CCCC3)nc12` [III-26] is 12-fold higher in IC50: 2 nM for the first, 24 nM for the second.

First: COc1ccc(C(=O)Nc2ccc(OC)c(C(F)(F)F)c2)cc1Nc1ncnc2cnc(NCCN(C)C)nc12 [III-27]
Second: COc1ccc(NC(=O)c2ccc(C(F)(F)F)c(Nc3ncnc4cnc(NCCN(C)C)nc34)c2)cc1C(F)(F)F [III-52]
The IC50 of the first is 280-fold lower: 8 nM for the first, 2230 nM for the second. The first is the more potent here.

Going from `COc1ccc(C(=O)Nc2ccc(OC)c(C(F)(F)F)c2)cc1Nc1ncnc2cnc(N(C)C)nc12` [III-29] to `COc1ccc(NC(=O)c2ccc(C(F)(F)F)c(Nc3ncnc4cnc(N(C)C)nc34)c2)cc1C(F)(F)F` [III-54], the IC50 rises from 2 nM to 543 nM (270-fold). The first is the more potent here.

Compared with `COc1ccc(NC(=O)c2ccc(F)c(Nc3ncnc4cnc(N5CCCCCC5)nc34)c2)cc1C(F)(F)F` [III-32], `COc1ccc(NC(=O)c2ccc(F)c(Nc3ncnc4cnc(N5CCCCC5)nc34)c2)cc1C(F)(F)F` [III-35] is 5-fold higher in IC50: 1 nM for the first, 5 nM for the second.

Compared with `COc1ccc(NC(=O)c2ccc(F)c(Nc3ncnc4cnc(N5CCN(C)CC5)nc34)c2)cc1C(F)(F)F` [III-34], `COc1ccc(NC(=O)c2ccc(C(F)(F)F)c(Nc3ncnc4cnc(N5CCN(C)CC5)nc34)c2)cc1C(F)(F)F` [III-47] is 48-fold higher in IC50: 2 nM for the first, 95 nM for the second.

Compared with `COc1ccc(NC(=O)c2ccc(F)c(Nc3ncnc4cnc(NCCCN5CCOCC5)nc34)c2)cc1C(F)(F)F` [III-36], `COc1ccc(NC(=O)c2ccc(C(F)(F)F)c(Nc3ncnc4cnc(NCCCN5CCOCC5)nc34)c2)cc1C(F)(F)F` [III-49] is 200-fold higher in IC50: 3 nM for the first, 587 nM for the second.

Going from `COCCN(C)c1ncc2ncnc(Nc3cc(C(=O)Nc4ccc(OC)c(C(F)(F)F)c4)ccc3C(F)(F)F)c2n1` [III-42] to `COc1ccc(NC(=O)c2ccc(C(F)(F)F)c(Nc3ncnc4cnc(N(C)CCN(C)C)nc34)c2)cc1C(F)(F)F` [III-43], the IC50 rises from 64 nM to 972 nM (15-fold).

`COc1ccc(NC(=O)c2ccc(C(F)(F)F)c(Nc3ncnc4cnc(N5CCCCCC5)nc34)c2)cc1C(F)(F)F` [III-44] and `COc1ccc(NC(=O)c2ccc(C(F)(F)F)c(Nc3ncnc4cnc(N5CCCCC5)nc34)c2)cc1C(F)(F)F` [III-48] cannot be ordered by IC50: > 2000 nM for the first, > 1000 nM for the second.

`COc1ccc(NC(=O)c2ccc(C(F)(F)F)c(Nc3ncnc4cnc(N5CCCN(C)CC5)nc34)c2)cc1C(F)(F)F` [III-45] and `COc1ccc(NC(=O)c2ccc(C(F)(F)F)c(Nc3ncnc4cnc(N5CCCC5)nc34)c2)cc1C(F)(F)F` [III-51] are within 1.5-fold of each other in IC50: 283 nM for the first, 381 nM for the second.

`COc1ccc(NC(=O)c2ccc(C(F)(F)F)c(Nc3ncnc4cnc(N(C)CCN5CCCC5)nc34)c2)cc1C(F)(F)F` [III-46] and `COc1ccc(NC(=O)c2ccc(C(F)(F)F)c(Nc3ncnc4cnc(NCCN5CCOCC5)nc34)c2)cc1C(F)(F)F` [III-53] are within 1.5-fold of each other in IC50: 451 nM for the first, 318 nM for the second.

Compared with `COc1ccc(NC(=O)c2ccc(C(F)(F)F)c(Nc3ncnc4cnc(N5CCOCC5)nc34)c2)cc1C(F)(F)F` [III-50], `CC(C)(C)c1cc(NC(=O)c2ccc(C(F)(F)F)c(Nc3ncnc4cnc(N5CCOCC5)nc34)c2)no1` [III-63] is 2.6-fold higher in IC50: 5 nM for the first, 13 nM for the second.

`COCCN(C)c1ncc2ncnc(Nc3cc(C(=O)Nc4cc(C(C)(C)C)on4)ccc3C(F)(F)F)c2n1` [III-55] and `CN(C)CCN(C)c1ncc2ncnc(Nc3cc(C(=O)Nc4cc(C(C)(C)C)on4)ccc3C(F)(F)F)c2n1` [III-56] cannot be ordered by IC50: > 150 nM for the first, 1990 nM for the second.

`CC(C)(C)c1cc(NC(=O)c2ccc(C(F)(F)F)c(Nc3ncnc4cnc(N5CCCCCC5)nc34)c2)no1` [III-57] and `CC(C)(C)c1cc(NC(=O)c2ccc(C(F)(F)F)c(Nc3ncnc4cnc(N5CCCCC5)nc34)c2)no1` [III-61] are within 1.5-fold of each other in IC50: 1830 nM for the first, 2240 nM for the second.

Going from `CN1CCCN(c2ncc3ncnc(Nc4cc(C(=O)Nc5cc(C(C)(C)C)on5)ccc4C(F)(F)F)c3n2)CC1` [III-58] to `CN1CCN(c2ncc3ncnc(Nc4cc(C(=O)Nc5cc(C(C)(C)C)on5)ccc4C(F)(F)F)c3n2)CC1` [III-60], the IC50 rises from 88 nM to 230 nM (2.6-fold). The first is the more potent here.

Compared with `CN(CCN1CCCC1)c1ncc2ncnc(Nc3cc(C(=O)Nc4cc(C(C)(C)C)on4)ccc3C(F)(F)F)c2n1` [III-59], `CC(C)(C)c1cc(NC(=O)c2ccc(C(F)(F)F)c(Nc3ncnc4cnc(N5CCCC5)nc34)c2)no1` [III-64] is higher in IC50: 835 nM for the first, > 1000 nM for the second. The first is the more potent here.

Going from `CC(C)(C)c1cc(NC(=O)c2ccc(C(F)(F)F)c(Nc3ncnc4cnc(NCCCN5CCOCC5)nc34)c2)no1` [III-62] to `CC(C)(C)c1cc(NC(=O)c2ccc(C(F)(F)F)c(Nc3ncnc4cnc(NCCN5CCOCC5)nc34)c2)no1` [III-66], the IC50 rises from 546 nM to 1140 nM (2.1-fold). The first is the more potent here.

First: CN(C)CCNc1ncc2ncnc(Nc3cc(C(=O)Nc4cc(C(C)(C)C)on4)ccc3C(F)(F)F)c2n1 [III-65]
Second: CN(C)c1ncc2ncnc(Nc3cc(C(=O)Nc4cc(C(C)(C)C)on4)ccc3Cl)c2n1 [III-69]
The IC50 of the first is 700-fold higher: 4170 nM for the first, 6 nM for the second. The second is the more potent here.

`COCCN(C)c1ncc2ncnc(Nc3cc(C(=O)Nc4cc(C(C)(C)C)on4)ccc3Cl)c2n1` [III-67] and `CN1CCCN(c2ncc3ncnc(Nc4cc(C(=O)Nc5cc(C(C)(C)C)on5)ccc4Cl)c3n2)CC1` [III-70] are within 1.5-fold of each other in IC50: 5 nM for the first, 4 nM for the second.

Compound `CC(C)(C)c1cc(NC(=O)c2ccc(Cl)c(Nc3ncnc4cnc(N5CCCCCC5)nc34)c2)no1` [III-68] has an IC50 of 8 nM.
